Experiments:
female BALB/c mice = experiment: Absence of gastrointestinal toxicity, gavage for 10 days; format: in vivo; details: 20 mg/kg daily by gavage for 10 days
Experimental: Compound 2 at 5 mg/kg (n=3) or vehicle (PEG 400:PBS1:1; n=2) was administered via gavage to female BALB/c mice for 10 days. […] Histology of cecum and colon were normal.
The diastereoisomeric mixture of Compounds 3a and 3b in PEG 400:PBS1:1 was administered to 7 week old female BALB/c mice (n=8) by gavage at 20 mg/kg daily for 10 days. There was no vehicle control group for comparison.
Compound 4 at 5 mg/kg (n=3) or vehicle (n=2, PEG:PBS 1:1) was administered via gavage to female BALB/c mice for 10 days. […] Histology of cecum and colon were normal.

NFκB promoter activity = experiment: Inhibition of NFκB promoter activity (β-lactamase reporter) in TNFα-stimulated THP-1 cells; format: cell-based, human; details: 5 h
Experimental: Human macrophage THP-1 cells, modified to include the β-lactamase reporter gene, were seeded into wells of a 96-well plate (50×10^3 cells/well) in the presence of RPMI 1640 medium (70 μl). TNFα (7.5 ng/ml) and human sera (final concentration of 20%) were added to each well. Plates were incubated for 5 h at 37° C. to allow for NFkB-stimulated β-lactamase production. LiveBLAzer™ FRET B/G Substrate (CCF4-AM) was then added to assay for β-lactamase activity. Once CCFA-AM enters a cell, it is converted to negatively charged CCF4 by endogenous esterases. Excitation of this substrate at 409 nm leads to efficient FRET between the coumarin and fluorescein moieties, resulting in a green fluorescence detectable at 530 nm. The presence of β-lactamase leads to cleavage of CCF4 and results in a loss of FRET, resulting in a robust blue fluorescent signal detectable at 460 nm. Thus, activity of beta-lactamase (a marker of NFkB-promoter activity) is measured as a product to substrate ratio (blue/green fluorescence ratio: 460 nm/530 nm).

[1] = test system: contractile response of the aortic ring to noradrenaline; experiment: Vasodilatory activity in the rat aortic ring assay; design: species or system rat (Sprague-Dawley); details: test compound 1 μg/ml
Experimental: The vasodilatory capacity of test compounds was examined ex vivo using the rat aortic ring assay.
Male Sprague-Dawley rats (250±50 g) were euthanized with 80% CO2 and 20% O2. The thoracic aorta was excised and quickly mounted in organ-baths as described (Chin-Dusting et al. 2001). Full concentration-contractile curves were obtained to noradrenaline ([…]) with and without test compounds delivered at a concentration of 1 μg/ml. Experiments were repeated in n=5 different rings from 5 different animals. Only one compound at any one concentration was tested on any one ring from any one animal. Sigmoidal dose response curves were fitted for the data and the logEC50 calculated (Prism 4, GraphPad Software). The difference in these values between the presence and absence of test compound was calculated using a two-tailed paired t test. The effects of β-oestrodiol and vehicle alone were examined as a positive and negative control respectively.

TX synthase (TXS) = biological target: T1, TX synthase (TXS) (Homo sapiens, UniProt P24557); experiment: TXB2 synthesis following addition of exogenous PGH2 to U937 cells; format: cell-based; details: 1, 10, 100 μM, undifferentiated U937 cells, PGH2 5 μM
T1 construct: endogenous in cells; host or cells: undifferentiated U937 cells
T1 sequence (P24557 1-533): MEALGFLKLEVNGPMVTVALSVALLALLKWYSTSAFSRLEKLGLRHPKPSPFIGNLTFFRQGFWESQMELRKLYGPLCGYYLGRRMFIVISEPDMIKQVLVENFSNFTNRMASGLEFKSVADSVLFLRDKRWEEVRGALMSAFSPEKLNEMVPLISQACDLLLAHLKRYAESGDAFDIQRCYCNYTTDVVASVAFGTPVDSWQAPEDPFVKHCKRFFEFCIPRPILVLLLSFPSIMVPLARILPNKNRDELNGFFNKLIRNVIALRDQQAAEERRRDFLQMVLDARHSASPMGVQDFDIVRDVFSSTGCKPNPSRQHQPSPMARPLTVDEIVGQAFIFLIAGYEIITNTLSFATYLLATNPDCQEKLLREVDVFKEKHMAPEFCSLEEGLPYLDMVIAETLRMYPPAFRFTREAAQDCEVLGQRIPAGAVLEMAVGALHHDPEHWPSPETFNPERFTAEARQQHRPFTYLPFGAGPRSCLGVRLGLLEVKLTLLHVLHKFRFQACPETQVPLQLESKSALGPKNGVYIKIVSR
Experimental: To examine effects of test compounds directly on TX synthase (TXS), a different assay system was used. Whereas arachidonic acid (AA) is the substrate for COX, PGH2 is the substrate for TX synthase. To examine directly the effect of these compounds on TXS, exogenous ? elow:
Test compounds at 0 μM, 1 μM, 10 μM and 100 μM (in DMSO) were incubated with undifferentiated U937 cells (6×10^6/ml) for 30 min at 37° C., after which PGH2 (5 μM) was added. After incubation for 10 min, the reaction was terminated by centrifugation and the supernatants were collected and TXB2 production was measured in triplicate by RIA. ANOVA followed by Newman-Keuls multiple comparisons test was used to examine differences between doses and the control values. A statistical significance level of 0.05 was used and differences from control values are indicated by an asterisk (*).

[2] = Anti inflammatory activity (test not specified)

Row | Structure (SMILES) | mean increase in body weight over the 10 days, of the starting weight (female BALB/c mice) [%] | body weight, in words (female BALB/c mice; no vehicle group) | inhibition of NFκB compared to vehicle control (NFκB promoter activity) | contractile response (logEC50) of the aortic ring to noradrenaline compared with vehicle [1] | thromboxane synthase inhibition (TXB2 synthesis after exogenous PGH2), selectivity in words (TX synthase (TXS)) | anti inflammatory activity [2]
1 | Cc1c(O)ccc2c1OCC(c1ccc(O)cc1)C2O (stereo not drawn) [Compound 3] | 5 | all mice maintained body weight | significantly (p<0.001) inhibited | significantly inhibited | less specific | 
2 | Oc1ccc(C23COc4cc(O)ccc4C2O3)cc1 (stereo not drawn) [3,4-epoxy-4′,7-dihydroxyisoflavan] |  |  |  |  |  | shows anti inflammatory activity

— US20090131513A1, “ANTI-INFLAMMATORY MODALITIES” (Novogen Research Pty Ltd., priority 2005, published 2009)
